We go through 6 compounds from paper PMC4841555, “Optimization of the All-D Peptide D3 for Aβ Oligomer Elimination” (PLoS ONE, 2016).

Several values for one entry are separate records, joined by “and”; a condition that tells them apart may be missing. Equal values may be shown once. Non-standard residues stand in square brackets, D forms with d. Residues, ends and D or L forms follow the SMILES beside them.

Data set [1] concerns the target T1, Aβ(1–42) (Homo sapiens, UniProt P05067).
T1 construct: Aβ(1–42), N-terminally biotinylated Aβ(1–42) and FITC-Aβ(1–42) were purchased from Bachem; purchased Bachem (Heidelberg, Germany)
In words: Aβ aggregation inhibition ELISA. Type of data set: biochemical. To be noted: 400 nM Aβ(1–42), 500 mM Tris pH 7.4, 23 h, 37°C, aggregate-specific ELISA, logistic fit, three independent experiments; read-out: EC50 of inhibition of Aβ aggregate formation. Here is the method:
Freshly dissolved monomeric Aβ(1–42) (400 nM in 500 mM Tris-buffer pH 7.4) was incubated with and without DB peptides in different concentrations (0.01, 0.05, 0.1, 0.5, 1, 5, 10, 50 and 100 μM for DB3 or half of the molar concentrations in case of DB3DB3) in a humidity chamber for 23 h at 37°C. The aggregation was analyzed by an enzyme-linked immunosorbent assay (ELISA). NP27 antibody in bicarbonate/carbonate buffer was used to coat the ELISA plate overnight. Then the plate was washed in PBS-Tween buffer (1x PBS + 0.05% Tween) and blocked for 2 h at room temperature with 5% casein buffer. After washing, Aβ aggregate solutions were added to the plate and incubated for 1 h at room temperature. The plate was washed again and bound Aβ aggregates were detected by biotinylated 6E10/HRP-avidin mediated immunoreaction (BioLegend, San Diego, CA USA) using TMB as detection reagent. […] Mean value and standard error were calculated from three independent experiments. EC50 was calculated by fitting the data to a logistic dose response function.
Fig 5 Inhibition of Aβ fibril formation and Aβ aggregation disassemble by DB3 and DB3DB3. A) Monomeric Aβ(1–42) (400 nM) was mixed with different concentrations of DB3 (0.01, 0.05, 0.1, 0.5, 1, 5, 10, 50, 100 μM) and the aggregation state of Aβ was analyzed using an Aβ aggregate specific ELISA. […] All data were determined in triplicate. […]

For data set [2], the target named is T2, preformed Aβ(1–42) aggregates (Homo sapiens, UniProt P05067).
T2 construct: Aβ(1–42), N-terminally biotinylated Aβ(1–42) and FITC-Aβ(1–42) were purchased from Bachem; purchased Bachem (Heidelberg, Germany)
Nature of the data set: Aβ aggregate disassembly ELISA. Type of data set: biochemical. Here is the method: Freshly dissolved monomeric Aβ(1–42) (400 nM in 500 mM Tris-buffer pH 7.4) was incubated in a humidity chamber for 22 h at 37°C in order to preform Aβ(1–42) aggregates. These preformed aggregates were coincubated with D-peptide in different concentrations (0.01, 0.05, 0.1, 0.5, 1, 5, 10, 50, 100 μM for DB3 or with half of the molar concentrations in case of DB3DB3) for additional 22 h at 37°C. The content of Aβ aggregates was measured and evaluated in the same way as the aggregation inhibition ELISA.
Fig 5 Inhibition of Aβ fibril formation and Aβ aggregation disassemble by DB3 and DB3DB3. A) Monomeric Aβ(1–42) (400 nM) was mixed with different concentrations of DB3 (0.01, 0.05, 0.1, 0.5, 1, 5, 10, 50, 100 μM) and the aggregation state of Aβ was analyzed using an Aβ aggregate specific ELISA. For DB3DB3 half of the molar concentrations compared to DB3 were used. Aβ without DB3 and DB3DB3 addition was taken as control. For DB3 an EC50 of 6 μM was calculated using a logistic fit model. DB3DB3 inhibited the formation of Aβ fibrils more efficiently with an EC50 of 7 nM. B) The disassembly properties of DB3 and DB3DB3 were measured using an Aβ aggregation specific ELISA. Monomeric Aβ(1–42) (400 nM) was preincubated in order to form fibrils and mixed with nine different concentrations of DB3 (0.01, 0.05, 0.1, 0.5, 1, 5, 10, 50, 100 μM). For DB3DB3, the molar concentrations were half those used for DB3. […] DB3DB3 disassembled Aβ aggregates at the lowest concentration […]. Thus, the EC50 could not be determined, but is < 10 nM. All data were determined in triplicate. The Mann-Whitney-U-test was performed for statistical analysis. * p< 0.05; ** p < 0.01; *** p < 0.001
The Aβ aggregate disassembly ELISA was used to analyze the effect of DB3 and DB3DB3 on preformed Aβ aggregates (Fig 5B). […] The Aβ aggregates specific ELISA was used to quantify Aβ aggregates. […] The results of measured Aβ aggregates normalized to the Aβ control were plotted against the peptide concentration. The EC50 was calculated by a logarithmic dose response function.

The next data set addresses T3, Aβ(1–42) oligomers (Homo sapiens, UniProt P05067).
T3 construct: Aβ(1–42), N-terminally biotinylated Aβ(1–42) and FITC-Aβ(1–42) were purchased from Bachem; purchased Bachem (Heidelberg, Germany)
In words: QIAD assay (Aβ oligomer elimination). Type of data set: biochemical. To be noted: 10 μM DB3DB3, 80 μM Aβ(1–42) preincubated 4.5 h, 40 min with peptide, density gradient centrifugation, RP-HPLC, triplicate. As to the method: The quantitative determination of interference with Aβ(1–42) aggregate size distribution (QIAD) was performed as described before. In brief, 80 μM Aβ(1–42) was incubated in 10 mM sodium phosphate buffer, pH 7.4 for 4.5 h at 22°C with 600 rpm agitation. Aβ(1–42) aggregation was continued for an additional 40 min with or without DB peptide. The obtained partial size distribution was analyzed by applying density gradient centrifugation. 100 μl of the incubated sample was placed on top of a gradient with 5 to 50% iodixanol (Optiprep, Axis-shield, Oslo, Norway) and separated at 259.000 x g for 3 h at 4°C using an ultracentrifuge (Optima MAX-XP, Beckman Coulter, Brea, USA). Fourteen fractions of 140 μl were taken from top to bottom. […] For quantification of the Aβ(1–42) amount in each fraction, reversed-phase high performance liquid chromatography (RP-HPLC) was performed using a Zorbax SB-300 C8 column (Agilent, Böblingen, Germany) connected to an Agilent 1260 Infinity system using 30% (v/v) acetonitrile with 0.1% (v/v) trifluoroacetic acid (TFA) as the mobile phase with a flow of 1 ml/min and a column temperature of 80°C. […] The UV absorption at 214 nm was measured. For quantification of the Aβ(1–42) amount, the area under the peak representing Aβ(1–42) was calculated and the molar concentration was determined using a calibration curve. […]

A further data set relates to PC12 cells. Nature of the data set: MTT cell viability assay. The format is cell-based, rat. To be noted: 5 μM peptide without Aβ, 24 h.
The target in data set [3] is T1, Aβ(1–42). Nature of the data set: Thioflavin T (ThT) fibril formation assay. The format is biochemical. Particulars: 20 μM Aβ(1–42), 20 μM peptide (method: 31 μg/ml), 20 μM ThT, 10 mM sodium phosphate pH 7.4, 37°C, compared after 5 h with Aβ(1–42)-only control. As to the method:
20 μM Aβ(1–42) was mixed with 20 μM Thioflavin T (ThT) and 31 μg/ml DB3 or DB3DB3 in 10 mM sodium phosphate buffer, pH 7.4. The assay was performed using a non-binding 96 well plate (Greiner Bio-One, Frickenhausen, Germany). ThT fluorescence was measured every 15 min at λex = 440 nm and λem = 490 nm in a temperature-controlled plate reader (Polarstar Optima, BMG, Offenburg, Germany) at 37°C with 1 min agitation before every measurement. Each value was background corrected using the ThT fluorescence of a peptide solution without Aβ(1–42). To investigate the influence of DB1 to DB5 on Aβ fibril formation, a Thioflavin T (ThT) assay was performed. In an aqueous environment the benzothiazole dye has a low fluorescence. […] The emission at 490 nm is directly proportional to the quantity of amyloid fibrils. Fibril formation of Aβ can be followed in real time by measuring the ThT fluorescence. Therefore, the inhibitory effects of the D-peptides DB1 to DB5 and D3 were investigated by co-incubating these peptides with Aβ(1–42) and performing the ThT assay. Fluorescence emission data were compared after 5 h incubation, because after this period the Aβ(1–42) control (without added peptide) reached its fluorescence maximum. […] 20 μM Aβ(1–42) was mixed with 20 μM DB1 to DB5 or 10 μM DB3DB3 and the ThT fluorescence was monitored. Aβ(1–42) without peptide addition was taken as the control. The ThT fluorescence of all samples were compared after 5 h, where the control, Aβ(1–42) only, reached its maximum in fluorescence emission. The Mann-Whitney-U-test was used for statistical analysis. * p < 0.05; ** p < 0.01; *** p < 0.001.

A further data set concerns transgenic mice. Particulars: ref [10], [15], [16], cited from earlier work. The source says:
We have previously selected the 12mer all-D-enantiomeric peptide D3 via mirror image phage display. In vitro, D3 binds to amyloid plaques, reduces Aβ aggregation to regular fibrils, eliminates Aβ oligomers and converts preformed fibrils into non-amyloidogenic, non-fibrillar, non-toxic aggregates. In vivo, the plaque load and cerebral inflammation of transgenic mice is reduced after injection of D3 into the brain and cognitive impairment of transgenic mice is improved after oral application. The original phage library, from which D3 was selected, coded ...

T1 sequence (P05067 672-713 limits assumed): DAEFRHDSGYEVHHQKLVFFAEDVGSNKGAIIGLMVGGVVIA
T2 sequence (P05067 672-713 limits assumed): as above
T3 sequence (P05067 672-713 limits assumed): as above
Method for PC12 cells: Rat pheochromocytoma PC12 cells (Leibniz Institute DSMZ, Braunschweig, Germany) were cultivated in DMEM medium supplemented with 10% fetal bovine serum and 5% horse serum. 10,000 cells per well were seeded on collagen-coated 96 well plates (Gibco, Life technology, Carlsberg, USA) and incubated in a 95% humidified atmosphere with 5% CO2 at 37°C for 24 h. […] DB peptide was then added at different concentrations and incubated for further 40 min at 21°C and 600 rpm agitation before addition to the PC12 cells. […] Cell viability was then measured using the Cell proliferation Kit I (MTT) (Roche, Basel, Switzerland) according to the manufacturer’s instruction. The absorbance of the formazan product was determined by measuring at 570 nm after subtracting the absorption at 660 nm. For absorption measurements, a Polarstar Optima plate reader (BMG, Offenburg, Germany) was used. All results were normalized to cells that were treated with buffer only.
The cell viability assay was performed using PC12 cells in a MTT test. […] The absorption of buffer treated cells was set to 100% cell viability. […] The Mann-Whitney-U-test was used for statistical analysis. * p < 0.05; ** p < 0.01; *** p < 0.001.

As to `CC[C@@H](C)[C@@H](NC(=O)[C@H]1CCCN1C(=O)[C@H](N)CCCNC(=N)N)C(=O)N[C@@H](C(=O)N[C@H](CCCNC(=N)N)C(=O)N[C@H](CC(C)C)C(=O)N[C@H](CCCNC(=N)N)C(=O)N[C@@H](C(=O)N[C@H](Cc1c[nH]cn1)C(=O)N[C@H](CCC(N)=O)C(=O)N[C@H](CC(N)=O)C(=O)N[C@H](CCCNC(=N)N)C(=O)N[C@H](CCCNC(=N)N)C(=O)N1CCC[C@@H]1C(=O)N[C@@H](C(=O)N[C@@H](C(=O)N[C@H](CCCNC(=N)N)C(=O)N[C@H](CC(C)C)C(=O)N[C@H](CCCNC(=N)N)C(=O)N[C@@H](C(=O)N[C@H](Cc1c[nH]cn1)C(=O)N[C@H](CCC(N)=O)C(=O)N[C@H](CC(N)=O)C(=O)N[C@H](CCCNC(=N)N)C(N)=O)[C@H](C)O)[C@H](C)O)[C@H](C)CC)[C@H](C)O)[C@H](C)O` [DB3DB3] (H-[dR][dP][dI][dT][dR][dL][dR][dT][dH][dQ][dN][dR][dR][dP][dI][dT][dR][dL][dR][dT][dH][dQ][dN][dR]-NH2), the EC50 was 8 nM and 7 nM at Aβ(1–42) [1]; under 10 nM in data set [2] (400 nM Aβ(1–42) preincubated 22 h at 37°C, then with peptide 22 h (24 h) at 37°C, ELISA, triplicate). In data set [2] (10 nM DB3DB3 added to 400 nM Aβ, compared to Aβ in the absence of peptide), the “disassembly of the Aβ aggregates” value is listed as 80%. In addition, the “reduction of the content of Aβ oligomers” value at Aβ(1–42) oligomers is 82%. The “effect of peptide alone on PC12 cell viability” value in the data set on PC12 cells is listed as “not toxic”.
On to “RPITRLQTHEQR [DB5, all-D D3 derivative, C-terminally amidated]”, for which the “inhibition of Aβ(1–42) fibril formation (ThT fluorescence)” value (from here on “inhibition of Aβ(1–42) fibril formation”) at Aβ(1–42) [3] stood at 76%.
Still for that read-out and setting: as for “RPITRLHTDRNR [DB1, all-D D3 derivative, C-terminally amidated]”, the figure is 63%.
Take “RPRTRLHTHRNR [D3, 12mer all-D-enantiomeric peptide selected via mirror image phage display, C-terminally amidated]”: at Aβ(1–42) [3], the “inhibition of Aβ(1–42) fibril formation” value is 30%. In the data set on transgenic mice (injection of D3 into the brain), the “plaque load and cerebral inflammation of transgenic mice” value is on record as “reduced”. The “cognitive impairment of transgenic mice” value in the data set on transgenic mice (oral application) is “improved”.
Take “RPITTLQTHQNR [DB2, all-D D3 derivative, C-terminally amidated]”: at Aβ(1–42) [3], the “inhibition of Aβ(1–42) fibril formation” value amounted to 49%.
Turning to “RPRTRLRTHQNR [DB4, all-D D3 derivative, C-terminally amidated]”, the “inhibition of Aβ(1–42) fibril formation” value against Aβ(1–42) [3] is “no effect”.
